Experimental data taken from patent US20220411388A1, “SUBSTITUTED IMIDAZOLE CARBOXAMIDES AND THEIR USE IN THE TREATMENT OF MEDICAL DISORDERS” (Bial - R&D Investments, S.A., priority 2019, published 2022).
In brackets after ≈: the same amount, converted by molar mass.

Key:
acid ceramidase (hACR) = molecular target: T1, acid ceramidase (hACR) (Homo sapiens, UniProt Q13510); assay: Acid ceramidase inhibition, biochemical fluorescent assay with cell lysates overexpressing acid ceramidase (substrate Rbm14-12); conditions: cell lysate, 1 hr preincubation at RT, pH 4.5, Rbm14-12 6.3 μM; read-out: IC50 hACR
T1 construct: expressed in transfected cells
T1 sequence (Q13510 22-395): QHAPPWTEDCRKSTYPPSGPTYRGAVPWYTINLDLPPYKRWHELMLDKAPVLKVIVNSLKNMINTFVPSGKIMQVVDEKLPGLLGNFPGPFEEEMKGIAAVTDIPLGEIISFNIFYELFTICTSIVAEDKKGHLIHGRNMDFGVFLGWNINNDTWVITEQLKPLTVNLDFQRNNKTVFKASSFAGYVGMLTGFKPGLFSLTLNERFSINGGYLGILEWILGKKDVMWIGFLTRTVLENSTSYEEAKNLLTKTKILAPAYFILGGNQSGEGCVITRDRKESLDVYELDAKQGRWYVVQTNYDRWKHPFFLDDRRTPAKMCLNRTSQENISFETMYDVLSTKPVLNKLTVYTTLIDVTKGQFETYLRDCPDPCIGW
In short: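 Enzyme source was lysate from cells overexpressing acid ceramidase, 10 µg protein per reaction. Compounds were preincubated 1 h at RT in 25 mM NaAc, 100 mM NaCl, pH 4.5.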

[1] = Compound solubility in water; assay type: physicochemical

Row | IC50 (acid ceramidase (hACR)) [nM] | solubility [1] [µg/mL] | Compound Solubility in Water [1] [µg/mL] | Compound
1 | 200 to 1000 | 1 (≈ 2.98 µM) |  | COc1nc(-c2ccccc2)cn1C(=O)NC1CCCC(F)(F)C1 (stereo not drawn) [Example 158, N-(3,3-Difluorocyclohexyl)-2-methoxy-4-phenyl-1H-imidazole-1-carboxamide]
2 | < 200 | 35 (≈ 97.6 µM) |  | Cc1cn(C(=O)NCCc2ccccc2)c(OCCN2CCOCC2)n1 [Example 159, 4-Methyl-2-(2-morpholinoethoxy)-N-phenethyl-1H-imidazole-1-carboxamide]
3 | < 200 |  | 13 | COc1nc(C)cn1C(=O)NCCC(C)C [Example 160, N-iso-Pentyl-2-methoxy-4-methyl-1H-imidazole-1-carboxamide]
4 | 200 to 1000 | 17 (≈ 42 µM) |  | Cc1cn(C(=O)NC2CCC(F)(F)CC2)c(Oc2cccc(C3CN(C)C3)c2)n1 [Example 162, N-(4,4-Difluorocyclohexyl)-4-methyl-2-(3-(1-methylazetidin-3-yl)phenoxy)-1H-imidazole-1-carboxamide]
5 | < 200 | 13 (≈ 36.1 µM) |  | Cc1cn(C(=O)NC2CCC(F)(F)CC2)c(Oc2ccc(C#N)cc2)n1 [Example 163, 2-(4-Cyanophenoxy)-N-(4,4-difluorocyclohexyl)-4-methyl-1H-imidazole-1-carboxamide]
6 | < 200 | 8 (≈ 22.2 µM) |  | Cc1cn(C(=O)NC2CCC(F)(F)CC2)c(Oc2cccc(C#N)c2)n1 [Example 164, 2-(3-Cyanophenoxy)-N-(4,4-difluorocyclohexyl)-4-methyl-1H-imidazole-1-carboxamide]
7 | < 200 | 21 (≈ 49.9 µM) |  | Cc1cn(C(=O)NC2CCC(F)(F)CC2)c(Oc2ccc(N3CCOCC3)cc2)n1 [Example 165, N-(4,4-Difluorocyclohexyl)-4-methyl-2-(4-morpholinophenoxy)-1H-imidazole-1-carboxamide]
8 | 200 to 1000 | 30 (≈ 110 µM) |  | COc1nc(C)cn1C(=O)NCCC1CC(F)(F)C1 [Example 166, N-(2-(3,3-Difluorocyclobutyl)ethyl)-2-methoxy-4-methyl-1H-imidazole-1-carboxamide]
9 | < 200 | 32 (≈ 111 µM) |  | COc1nc(C)cn1C(=O)NCCC1CCCC1(F)F (stereo not drawn) [Example 167, N-(2-(2,2-Difluorocyclopentyl)ethyl)-2-methoxy-4-methyl-1H-imidazole-1-carboxamide]
10 | < 200 | 34 (≈ 119 µM) |  | COc1nc(Cl)cn1C(=O)NCCCC(F)(F)F [Example 168, 4-Chloro-2-methoxy-N-(4,4,4-trifluorobutyl)-1H-imidazole-1-carboxamide]
11 | < 200 | 10 (≈ 36.6 µM) |  | COc1nc(C)c(C)n1C(=O)NCCc1ccccc1 [Example 170, 2-Methoxy-4,5-dimethyl-N-phenethyl-1H-imidazole-1-carboxamide]
12 | < 200 | 24 (≈ 73.3 µM) |  | Cc1cn(C(=O)NCCCC(F)(F)F)c(Oc2ccccc2)n1 [Example 171, 4-Methyl-2-phenoxy-N-(4,4,4-trifluorobutyl)-1H-imidazole-1-carboxamide]
13 | < 200 | 4 (≈ 11.9 µM) |  | Cc1cn(C(=O)NC2CCC(F)(F)CC2)c(Oc2ccccc2)n1 [Example 172, N-(4,4-Difluorocyclohexyl)-4-methyl-2-phenoxy-1H-imidazole-1-carboxamide]
14 | < 200 | 25 (≈ 69.8 µM) |  | CN1CCC(c2cn(C(=O)NCCCC3(C(F)(F)F)CC3)cn2)CC1 [Example 174, 4-(1-Methylpiperidin-4-yl)-N-(3-(1-(trifluoromethyl)cyclopropyl)propyl)-1H-imidazole-1-carboxamide]
15 | < 200 | 1 (≈ 2.37 µM) |  | O=C(NCCCC1(C(F)(F)F)CC1)n1cnc(-c2cccnc2N2CCCCC2)c1 [Example 175, 4-(2-(Piperidin-1-yl)pyridin-3-yl)-N-(3-(1-(trifluoromethyl)cyclopropyl)propyl)-1H-imidazole-1-carboxamide]
16 | < 200 | 8 (≈ 22.6 µM) |  | O=C(NCCCC1(C(F)(F)F)CC1)n1ccnc1Oc1ccccc1 [Example 177, 2-Phenoxy-N-(3-(1-(trifluoromethyl)cyclopropyl)propyl)-1H-imidazole-1-carboxamide]
17 | < 200 | 32 (≈ 102 µM) |  | O=C(NCCCC(F)(F)F)n1ccnc1Oc1ccccc1 [Example 178, 2-Phenoxy-N-(4,4,4-trifluorobutyl)-1H-imidazole-1-carboxamide]
18 | < 200 | 22 (≈ 68.9 µM) |  | COc1nc(C)cn1C(=O)NCCCn1ccc(C(C)(C)C)n1 [Example 179, N-(3-(3-(tert-Butyl)-1H-pyrazol-1-yl)propyl)-2-methoxy-4-methyl-1H-imidazole-1-carboxamide]

Row | IC50 (acid ceramidase (hACR)) [nM] | solubility [1] [µg/mL] | Compound Solubility in Water [1] [µg/mL] | Compound
19 | < 200 | 17 (≈ 72.3 µM) |  | COc1nc(C)cn1C(=O)NCC#CC(C)C [Example 180, 2-Methoxy-4-methyl-N-(4-methylpent-2-yn-1-yl)-1H-imidazole-1-carboxamide]
20 | < 200 | 22 (≈ 77.6 µM) |  | COc1nc(C)cn1C(=O)NCC#CCc1ccccc1 [Example 181, 2-Methoxy-4-methyl-N-(4-phenylbut-2-yn-1-yl)-1H-imidazole-1-carboxamide]
21 | < 200 | 25 (≈ 79.3 µM) |  | COc1nc(C)cn1C(=O)NCC#CCC1(C(F)(F)F)CC1 [Example 182, 2-Methoxy-4-methyl-N-(4-(1-(trifluoromethyl)cyclopropyl)but-2-ynyl)-1H-imidazole-1-carboxamide]
22 | 200 to 1000 | 31 (≈ 104 µM) |  | Cc1cn(C(=O)NC2CC2)c(OC2CCC(F)(F)CC2)n1 [Example 183, N-Cyclopropyl-2-(4,4-difluorocyclohexyloxy)-4-methyl-1H-imidazole-1-carboxamide]
23 | < 200 | 31 (≈ 93.9 µM) |  | COc1nc(Br)cn1C(=O)NCCCC(F)(F)F [Example 184, 4-Bromo-2-methoxy-N-(4,4,4-trifluorobutyl)-1H-imidazole-1-carboxamide]
24 | < 200 | 29 (≈ 94.2 µM) |  | COc1nc(Cl)cn1C(=O)NCCC1CCCC1(F)F (stereo not drawn) [Example 185, 4-Chloro-N-(2-(2,2-difluorocyclopentyl)ethyl)-2-methoxy-1H-imidazole-1-carboxamide]
25 | 200 to 1000 | 29 (≈ 92.4 µM) |  | CC(C)Oc1nc(Cl)cn1C(=O)NCCCC(F)(F)F [Example 187, 4-Chloro-2-isopropoxy-N-(4,4,4-trifluorobutyl)-1H-imidazole-1-carboxamide]
26 | 200 to 1000 | 36 (≈ 97.6 µM) |  | CN1CCC(Oc2nc(Cl)cn2C(=O)NCCCC(F)(F)F)CC1 [Example 188, 4-Chloro-2-((1-methylpiperidin-4-yl)oxy)-N-(4,4,4-trifluorobutyl)-1H-imidazole-1-carboxamide]
27 | > 1000 | 26 (≈ 121 µM) |  | COc1nc(Cl)cn1C(=O)NC1CC1 [Example 189, 4-Chloro-N-cyclopropyl-2-methoxy-1H-imidazole-1-carboxamide]
28 | < 200 | 39 (≈ 105 µM) |  | Cc1cn(C(=O)NCCc2ccccc2)c(OCCN2CCN(C)CC2)n1 [Example 190, 4-Methyl-2-(2-(4-methylpiperazin-1-yl)ethoxy)-N-phenethyl-1H-imidazole-1-carboxamide]
29 | 200 to 1000 | 33 (≈ 81.1 µM) |  | O=C(NCCC1CCCC1(F)F)n1cc(Cl)nc1OCCN1CCOCC1 (stereo not drawn) [Example 191, 4-Chloro-N-(2-(2,2-difluorocyclopentyl)ethyl)-2-(2-morpholinoethoxy)-1H-imidazole-1-carboxamide]
30 | > 1000 | 45 (≈ 113 µM) |  | COc1nc(-c2cccnc2N2CCN(C)CC2)cn1C(=O)NCC#CC(C)C [Example 194, 2-Methoxy-N-(4-methylpent-2-yn-1-yl)-4-(2-(4-methylpiperazin-1-yl)pyridin-3-yl)-1H-imidazole-1-carboxamide]
31 | > 1000 | 35 (≈ 75 µM) |  | COc1nc(-c2cccnc2N2CCN(C)CC2)cn1C(=O)NCCCC1(C(F)(F)F)CC1 [Example 195]
32 | < 200 | 31 (≈ 84.1 µM) |  | Cc1cn(C(=O)NCC#Cc2ccccc2)c(OCCN2CCOCC2)n1 [Example 196, 4-Methyl-2-(2-morpholinoethoxy)-N-(3-phenylprop-2-yn-1-yl)-1H-imidazole-1-carboxamide]
33 | < 200 | 38 (≈ 99.6 µM) |  | Cc1cn(C(=O)NCC#Cc2ccccc2)c(OCCN2CCN(C)CC2)n1 [Example 197, 4-Methyl-2-(2-(4-methylpiperazin-1-yl)ethoxy)-N-(3-phenylprop-2-yn-1-yl)-1H-imidazole-1-carboxamide]
34 | 200 to 1000 | 38 (≈ 101 µM) |  | Cc1cn(C(=O)NCCCC(F)(F)F)c(OCCN2CCN(C)CC2)n1 [Example 198, 4-Methyl-2-(2-(4-methylpiperazin-1-yl)ethoxy)-N-(4,4,4-trifluorobutyl)-1H-imidazole-1-carboxamide]
35 | < 200 | 50 (≈ 129 µM) |  | Cc1cn(C(=O)NCCOc2ccccc2)c(OCCN2CCN(C)CC2)n1 [Example 199, 4-Methyl-2-(2-(4-methylpiperazin-1-yl)ethoxy)-N-(2-phenoxyethyl)-1H-imidazole-1-carboxamide]
36 | < 200 | 49 (≈ 117 µM) |  | Cc1cn(C(=O)NCCCC2(C(F)(F)F)CC2)c(OCCN2CCN(C)CC2)n1 [Example 200, 4-Methyl-2-(2-(4-methylpiperazin-1-yl)ethoxy)-N-(3-(1-(trifluoromethyl)cyclopropyl)propyl)-1H-imidazole-1-carboxamide]
